As usually defined, the MIC is the least concentration at which growth counts as inhibited.

Data set [1] can be described thus: In vitro test of inhibition of the evolution of odors on natural sweat (olfactory evaluation by jury of experts). Details: species or system human. The settings on record: for average % of reduction in the unpleasantness of the odor (T18 h, T24 h) / average % of reduction in the odor intensity (T18 h, T24 h): 37° C.; for average % of reduction in the unpleasantness of the odor (T18 h, T24 h): hedonistic grade relative to control sweat; for average % of reduction in the odor intensity (T18 h, T24 h): relative to control sweat without deodorant agent; for deodorant efficacy (reduction in the intensity and unpleasantness of the odor), in words: natural sweat, for at least 24 h. On the procedure: A test of inhibition of the evolution of odors was carried out on natural sweat. This test is carried out by adding the deodorant agent to fresh sweat, and then in carrying out an olfactory evaluation by means of a jury of experts after incubation at 37° C. for 18 hours and 24 hours. Thus, underarm sweat was collected in a sauna from several human models and combined to form a sample of sweat. In order to obtain the characteristic nauseating odor of sweat, before introducing the active substance, this sample of sweat was incubated for 18 hours at a temperature of 37° C. […] The active substance was then introduced into each of the flasks to be tested.
1) After incubation for 18 hours, the odor of each flask was evaluated.
The odor was evaluated on the basis of 2 criteria:
(a)—overall intensity (grading from 0 to 4):
(b)—the hedonistic assessment (grading from 0 to 6):
2) The flasks were reincubated in an oven at 37° C. for 6 h, the total desired incubation time being 24 h. Evaluation of the odor of each flask was then repeated as before.

Another data set relates to Corynebacterium xerosis. In words: Microbiostatic activity (MIC) by dilutions in agar medium. The class given is cell-based. The settings on record: for MIC: Corynebacterium xerosis. On the procedure: (§1) Each of the 3 compounds was presented in the form of an ethanolic solution. 100 μl of the ethanolic solution were added to 1.9 ml of agar culture heated beyond the melting point to 45° C. (medium chosen as a function of the nutrient requirements of the test strain). After stirring with a Vortex machine, successive dilutions, in geometrical progression by a factor of 2, of the solution obtained were carried out using agar culture medium heated beyond its melting point to 45° C. 1 ml of each dilution was introduced into the wells of a microplate (flask, 24 wells). Four μl of microbial suspension were placed at the surface of the agar medium. Two control wells were also prepared: 100 μl H2O+1.9 ml of culture medium (growth control), […] ethanol+1.9 ml of culture medium (control of non-toxicity of the ethanol diluted to 1/20).
(§2) After incubation under conditions (temperature, atmosphere and duration) dependent on the test strain, the minimum inhibitory concentration (MIC) was given by the lowest concentration of product which inhibited the microbial growth. The results, shown below, are expressed in μg/ml.
(§3) For the control cupules (H2O or ethanol), the observation of microbial growth made it possible to exclude the presence of a placebo effect.

The test system of the next data set is Aspergillus niger. The description is as above. It counts as cell-based. On the procedure:
as §1, §2, §3

For the next data set, the system named is Pityrosporum ovale. The data set is described as above. The class given is cell-based. To be noted: Malassezia furfur. The procedure: as §1, §2, §3
For another data set, the system named is Staphylococcus epidermis. The data set is described as above. The class given is cell-based. The procedure: as §1, §2, §3
The next data set concerns Staphylococcus aureus. Described as above. The class given is cell-based. On the procedure:
as §1, §2, §3

For a further data set, the system named is Propionibacterium acnes. The description is as above. It counts as cell-based. To be noted: Cutibacterium acnes. On the procedure:
as §1, §2, §3

For data set [2] the following is noted: cited from earlier work.
Where [3] appears, read: Pityrosporum ovale, agar dilution, read-out: MIC.
[4] abbreviates: Staphylococcus epidermis, agar dilution, read-out: MIC.
[5] abbreviates: Propionibacterium acnes, agar dilution, read-out: MIC.

SMILES strings stand for the structures. Converted amounts (≈) assume the structure as drawn. Like-named read-outs stand apart in the source and are kept apart here. Some results are limits rather than exact numbers.

In the case of `Oc1ccc(C=Cc2ccccc2)cc1` [4-Hydroxystilbene, 4-hydroxystilbene], the “average % of reduction in the unpleasantness of the odor (T18 h, T24 h)” value in data set [1] (1 mg/ml of sweat) is reported as −3%; in data set [1] (2 mg/ml of sweat), −10%. Besides, the “average % of reduction in the odor intensity (T18 h, T24 h)” value is listed as −18% in data set [1] (1 mg/ml of sweat) and −21% in data set [1] (2 mg/ml of sweat). For the same compound, in data set [1], the “deodorant efficacy (reduction in the intensity and unpleasantness of the odor), in words” value is reported as “highly insufficient efficacy”.

Consider `Oc1cc(O)cc(C=Cc2ccccc2)c1` [Pinosylvine, 3,5-dihydroxystilbene], for which the minimal inhibitory concentration (MIC) was 6 µg/mL (≈ 28.3 µM) with Corynebacterium xerosis (agar dilution, read-out: MIC); 400 µg/mL (≈ 1880 µM) in the data set on Aspergillus niger (agar dilution, read-out: MIC); greater than 400 µg/mL with Pityrosporum ovale (setting [3]); 400 µg/mL (≈ 1880 µM) in the data set with Staphylococcus epidermis (setting [4]); 200 µg/mL (≈ 942 µM) with Staphylococcus aureus (agar dilution, read-out: MIC); 200 µg/mL (≈ 942 µM) with Propionibacterium acnes (setting [5]). The “selectivity of bactericidal activity, in words” value with Corynebacterium xerosis (less active than Resveratrol on all strains except Corynebacterium xerosis) is reported as “exerted selectively”. Moreover, the “average % of reduction in the unpleasantness of the odor (T18 h, T24 h)” value in data set [1] (1 mg/ml of sweat) was −33%; in data set [1] (2 mg/ml of sweat), −40%. Also, the “average % of reduction in the odor intensity (T18 h, T24 h)” value in data set [1] (1 mg/ml of sweat) was −77%; in data set [1] (2 mg/ml of sweat), −89%. Moreover, the “deodorant efficacy (reduction in the intensity and unpleasantness of the odor), in words” value in data set [1] is reported as “very large reduction”.

On to `Oc1ccc(/C=C/c2cc(O)cc(O)c2)cc1` [Resveratrol, 3,5,4′-stilbene], for which the minimum inhibitory concentration (MIC) in the data set on Corynebacterium xerosis (agar dilution, read-out: MIC) is 14 µg/mL (≈ 61.3 µM); in the data set on Aspergillus niger (agar dilution, read-out: MIC), greater than 115 µg/mL; in the data set on Pityrosporum ovale (setting [3]), greater than 115 µg/mL; with Staphylococcus epidermis (setting [4]), 72 µg/mL (≈ 315 µM); with Staphylococcus aureus (agar dilution, read-out: MIC), 72 µg/mL (≈ 315 µM); in the data set with Propionibacterium acnes (setting [5]) it was 29 µg/mL (≈ 127 µM).

On to `Oc1cc(Cl)ccc1Oc1ccc(Cl)cc1Cl` [Triclosan, 2,4,4′-trichloro-2′-hydroxydiphenyl ether], for which the minimum inhibitory concentration (MIC) in the data set on Corynebacterium xerosis is 2.3 µg/mL (≈ 7.94 µM); against Aspergillus niger it was 18.1 µg/mL (≈ 62.5 µM); in the data set on Pityrosporum ovale, greater than 144 µg/mL; in the data set with Staphylococcus epidermis (Staphylococcus) it was 2.3 µg/mL (≈ 7.94 µM); in the data set on Staphylococcus aureus, 0.1 µg/mL (≈ 0.345 µM); in the data set on Propionibacterium acnes, 2.3 µg/mL (≈ 7.94 µM). Moreover, the “average % of reduction in the unpleasantness of the odor (T18 h, T24 h)” value in data set [1] (1 mg/ml of sweat) and in data set [1] (2 mg/ml of sweat) was −26% in each case. Moreover, the “average % of reduction in the odor intensity (T18 h, T24 h)” value in data set [1] (1 mg/ml of sweat) and in data set [1] (2 mg/ml of sweat) was −64% in each case. For the same compound, in data set [2], the “solubility in water, in words” value is “insoluble”.

The values above are taken from patent US6407142B1, “Use of stilbene derivatives substituted in position 3 as deodorant active agents in cosmetic compositions” (L'Oreal S.A., priority 1999, dated 2002).
